Measurements published in ChEMBL document CHEMBL5104211, “Design and synthesis of bile acid derivatives and their activity against colon cancer” (RSC Med Chem, 2022).
Calls of active or inactive are those of the source. No cut-off for these calls is given here.

Tests used:
[1] = test system: SK-HEP1; assay: Anticancer activity against human SK-HEP1 cells assessed as inhibition of cell proliferation by MTT assay; type: functional, cell-based
[2] = test system: MGC-803; assay: Anticancer activity against human MGC-803 cells assessed as inhibition of cell proliferation by MTT assay; type: functional, cell-based
[3] = test system: HCT-116; assay: Inhibition of cell invasion in human HCT-116 cells at 20 micromol/L and measured after 24 hrs by crystal violet staining based transwell assay; type: functional; conditions: HCT-116, 24 h, dose 20 µmol/L
[4] = test system: HCT-116; assay: Anticancer activity against human HCT-116 cells assessed as decrease in size of colonies at 25 micromol/L and measured after 48 hrs by crystal violet dye based colony formation assay; type: functional, cell-based; conditions: dose 25.0 µmol/L
[5] = test system: HCT-116; assay: Anticancer activity against human HCT-116 cells assessed as decrease in number of colonies at 25 micromol/L and measured after 48 hrs by crystal violet dye based colony formation assay; type: functional, cell-based; conditions: dose 25.0 µmol/L
[6] = test system: RAW264.7; assay: Anti-inflammatory activity against mouse RAW264.7 cells assessed as inhibition of LPS-induced NO production incubated for 24 hrs in presence of LPS by Griess reagent-based assay; type: functional, cell-based; conditions: RAW264.7, 24 h
[7] = test system: A549; assay: Anticancer activity against human A549 cells assessed as inhibition of cell proliferation by MTT assay; type: functional, cell-based
[8] = test system: HCT-116; assay: Anticancer activity in human HCT-116 cells assessed as downregulation of phosphorylated STAT3 level at 30 micromol/L incubated for 48 hrs by Western blot analysis; type: functional, cell-based; conditions: dose 30.0 µmol/L
[9] = test system: HT-29; assay: Anticancer activity against human HT-29 cells assessed as inhibition of cell proliferation by MTT assay; type: functional, cell-based
[10] = test system: HCT-116; assay: Induction of cell cycle arrest in human HCT-116 cells assessed as accumulation G2/M phase at 25 micromol/L and measured after 48 hrs by propidium iodide staining based flow cytometry analysis (Rvb= 11%); type: functional; conditions: dose 25 µmol/L, at 25 µM
[11] = test system: HCT-116; assay: Induction of apoptosis in human HCT-116 cells assessed as unclear cell rupture edges at 30 micromol/L incubated for 48 hrs by Giemsa staining based fluorescence microscopy; type: functional; conditions: dose 30.0 µmol/L
[12] = test system: LoVo; assay: Anticancer activity against human LoVo cells assessed as inhibition of cell proliferation by MTT assay; type: functional, cell-based
[13] = test system: SW480; assay: Anticancer activity against human SW480 cells assessed as inhibition of cell proliferation by MTT assay; type: functional, cell-based
[14] = test system: HCT-116; assay: Induction of mitochondrial membrane potential loss in human HCT-116 cells and measured after 48 hrs by TRME staining based flow cytometric analysis (reference value: 97.52%); type: functional
[15] = test system: HCT-116; assay: Induction of apoptosis in human HCT-116 cells assessed as retraction of the nucleus at 30 micromol/L incubated for 48 hrs by Giemsa staining based fluorescence microscopy; type: functional, cell-based; conditions: dose 30.0 µmol/L
[16] = test system: HCT-116; assay: Anticancer activity against human HCT-116 cells assessed as inhibition of cell proliferation at 5 to 50 micromol/L incubated for 24 hrs by MTT assay; type: functional, cell-based; conditions: dose 5-50 µmol/L, DDE = dose-dependent effect
[17] = Cytotoxicity against human WI-38 cells assessed as inhibition of cell proliferation by MTT assay; type: toxicity, cell-based
[18] = test system: HCT-116; assay: Induction of apoptosis in human HCT-116 cells assessed as early apoptotic cells at 30 micromol/L incubated for 48 hrs by annexin V-FITC and propidium iodide staining based flow cytometry analysis (reference value: 2.69%); type: functional; conditions: dose 30 µmol/L, at 30 µM
[19] = test system: HCT-116; assay: Anticancer activity against human HCT-116 cells assessed as inhibition of cell proliferation at 20 to 40 micromol/L incubated for 24 to 72 hrs by MTT assay; type: functional, cell-based; conditions: dose 20-40 µmol/L, time 24-72 hrs, TDE = time-dependent effect
[20] = test system: HCT-116; assay: Inhibition of cell migration in human HCT-116 cells at 20 micromol/L and measured after 24 hrs by crystal violet staining based transwell assay; type: functional; conditions: HCT-116, 24 h, dose 20 µmol/L
[21] = test system: HCT-116; assay: Induction of ROS generation in human HCT-116 cells assessed as increase in intracellular ROS level incubated for 48 hrs by DCFH-DA staining based flow cytometric analysis (Rvb=73.65%); type: functional
[22] = test system: HCT-116; assay: Induction of apoptosis in human HCT-116 cells assessed as retraction of the cytoplasm at 30 micromol/L incubated for 48 hrs by Giemsa staining based fluorescence microscopy; type: functional, cell-based; conditions: dose 30.0 µmol/L
[23] = test system: HCT-116; assay: Induction of apoptosis in human HCT-116 cells assessed as increase in number of apoptotic cells at 30 micromol/L incubated for 48 hrs by DAPI staining based fluorescence microscopy; type: functional, cell-based; conditions: dose 30.0 µmol/L
[24] = test system: Huh-7; assay: Anticancer activity against human Huh-7 cells assessed as inhibition of cell proliferation by MTT assay; type: functional, cell-based
[25] = test system: HCT-116; assay: Induction of apoptosis in human HCT-116 cells assessed as late apoptotic cells at 30 micromol/L incubated for 48 hrs by annexin V-FITC and propidium iodide staining based flow cytometry analysis (reference value: 7.13%); type: functional; conditions: dose 30 µmol/L, at 30 µM
[26] = test system: HCT-116; assay: Induction of apoptosis in human HCT-116 cells assessed as contraction of cell volume at 30 micromol/L incubated for 48 hrs by Giemsa staining based fluorescence microscopy; type: functional; conditions: dose 30.0 µmol/L
[27] = test system: RAW264.7; assay: Anti-inflammatory activity against mouse RAW264.7 cells assessed as downregulation of LPS-induced TNF-alpha level at 10 to 25 micromol/L incubated for 24 hrs in presence of LPS by ELISA; type: functional, cell-based; conditions: dose 10-25 µmol/L
[28] = test system: RKO; assay: Anticancer activity against human RKO cells assessed as inhibition of cell proliferation by MTT assay; type: functional, cell-based
[29] = test system: HCT-116; assay: Induction of apoptosis in human HCT-116 cells assessed as apoptotic body formation at 30 micromol/L incubated for 48 hrs by Giemsa staining based fluorescence microscopy; type: functional, cell-based; conditions: dose 30.0 µmol/L
[30] = test system: HCT-116; assay: Anticancer activity against human HCT-116 cells assessed as inhibition of cell proliferation at 20 micromol/L incubated for 24 hrs by MTT assay; type: functional; conditions: HCT-116, 24 h, dose 20 µmol/L
[31] = test system: HCT-116; assay: […] activity in human HCT-116 cells assessed as downregulation of Bcl-2 level at 30 micromol/L incubated for 48 hrs by Western blot analysis; type: functional, cell-based; conditions: dose 30.0 µmol/L
[32] = test system: HCT-116; assay: Induction of apoptosis in human HCT-116 cells assessed as necrotic cells at 30 micromol/L incubated for 48 hrs by annexin V-FITC and propidium iodide staining based flow cytometry analysis (reference value: 0.88%); type: functional; conditions: dose 30 µmol/L, at 30 µM
[33] = test system: HCT-116; assay: Induction of apoptosis in human HCT-116 cells assessed as viable cells at 30 micromol/L incubated for 48 hrs by annexin V-FITC and propidium iodide staining based flow cytometry analysis (reference value: 89.29%); type: functional; conditions: HCT-116, 48 h, dose 30 µmol/L, read-out: Activity
[34] = test system: HCT-116; assay: Anticancer activity against human HCT-116 cells assessed as inhibition of cell proliferation by MTT assay; type: functional, cell-based
[35] = test system: HCT-116; assay: Anticancer activity against human HCT-116 cells assessed as inhibition of cell proliferation at 40 micromol/L incubated for 24 hrs by MTT assay; type: functional; conditions: HCT-116, 24 h, dose 40 µmol/L
[36] = test system: HCT-116; assay: […] activity in human HCT-116 cells assessed as upregulation of cleaved caspase-3 level at 30 micromol/L incubated for 48 hrs by Western blot analysis; type: functional, cell-based; conditions: dose 30.0 µmol/L

| SMILES | IC50 [1] | IC50 [2] | Activity [4] | Activity [5] | IC50 [7] | Activity [8] | IC50 [9] | Activity [10] | Activity [11] | IC50 [12] | IC50 [13] | Activity [14] | Activity [15] | inhibition [16] | IC50 [17] | Activity [18] | inhibition [19] | inhibition at 20 µM [20] | Activity [21] | Activity [22] | further results |
| --- | --- | --- | --- | --- | --- | --- | --- | --- | --- | --- | --- | --- | --- | --- | --- | --- | --- | --- | --- | --- | --- |
| COc1cc(COC(=O)CC[C@@H](C)[C@H]2CC[C@H]3[C@@H]4[C@H](O)C[C@@H]5C[C@H](O)CC[C@]5(C)[C@H]4C[C@H](O)[C@]23C)cc(OC)c1 | 50.7 µM | 26.4 µM | Active | Active | 34.6 µM | Active | 27.9 µM | 89.77% | Active | 23.1 µM | 28 µM | 70.35% | Active | Dde | > 500 µM | 2.01% | Tde | 80% | 93.87% | Active | inhibition at 20 µM [3]: 80%; IC50 [6]: 20.6 µM; Activity [23]: Active; IC50 [24]: 126 µM; Activity [25]: 76.88%; Activity [26]: Active; Activity [27]: Active; IC50 [28]: 31.7 µM; Activity [29]: Active; inhibition at 20 µM [30]: < 40%; Activity [31]: Active; Activity [32]: 1.65%; viability at 30 µM [33]: 19.5%; IC50 [34]: 23.7 µM; inhibition at 40 µM [35]: 90% |
| Cc1ccc(COC(=O)CC[C@@H](C)[C@H]2CC[C@H]3[C@@H]4[C@H](O)C[C@@H]5C[C@H](O)CC[C@]5(C)[C@H]4C[C@H](O)[C@]23C)cc1 | 60.2 µM | 21.9 µM | Active | Active | 40.5 µM | Active | 22.7 µM | 90.66% | Active | 18.7 µM | 23.6 µM | 51.59% | Active | Dde | > 500 µM | 1.3% | Tde | 80% | 95.87% | Active | inhibition at 20 µM [3]: 80%; IC50 [6]: 20.6 µM; Activity [23]: Active; IC50 [24]: 51.6 µM; Activity [25]: 72.61%; Activity [26]: Active; Activity [27]: Active; IC50 [28]: 27.6 µM; Activity [29]: Active; inhibition at 20 µM [30]: < 40%; Activity [31]: Active; Activity [32]: 0.81%; viability at 30 µM [33]: 25.3%; IC50 [34]: 21.3 µM; inhibition at 40 µM [35]: 90% |
| C[C@H](CCC(=O)OCc1ccc([N+](=O)[O-])cc1)[C@H]1CC[C@H]2[C@@H]3[C@H](O)C[C@@H]4C[C@H](O)CC[C@]4(C)[C@H]3C[C@H](O)[C@]12C | 71.9 µM | 21.8 µM | Active | Active | 45.7 µM | Active | 34.8 µM | 93.18% | Active | 24.4 µM | 31.8 µM | 58.32% | Active | Dde | > 500 µM | 0.93% | Tde | 80% | 97.06% | Active | inhibition at 20 µM [3]: 80%; IC50 [6]: 20.6 µM; Activity [23]: Active; IC50 [24]: 63 µM; Activity [25]: 84.27%; Activity [26]: Active; Activity [27]: Active; IC50 [28]: 29.5 µM; Activity [29]: Active; inhibition at 20 µM [30]: < 40%; Activity [31]: Active; Activity [32]: 0.96%; viability at 30 µM [33]: 13.8%; IC50 [34]: 22 µM; inhibition at 40 µM [35]: 90% |
| COC(=O)c1ccc(COC(=O)CC[C@@H](C)[C@H]2CC[C@H]3[C@@H]4[C@H](O)C[C@@H]5C[C@H](O)CC[C@]5(C)[C@H]4C[C@H](O)[C@]23C)cc1 | 41.6 µM | 28.5 µM | Active | Active | 51.1 µM | Active | 27.2 µM | 89.39% | Active | 28.4 µM | 31.3 µM | 71.17% | Active | Dde | > 500 µM | 1.33% | Tde | 80% | 91.33% | Active | inhibition at 20 µM [3]: 80%; IC50 [6]: 20.6 µM; Activity [36]: Active; Activity [23]: Active; IC50 [24]: 52.1 µM; Activity [25]: 74.4%; Activity [26]: Active; Activity [27]: Active; IC50 [28]: 41.2 µM; Activity [29]: Active; Activity [31]: Active; Activity [32]: 1.19%; viability at 30 µM [33]: 23.1%; IC50 [34]: 25 µM |
| COC(=O)c1ccc(COC(=O)CC[C@@H](C)[C@H]2CC[C@H]3[C@@H]4[C@H](O)C[C@@H]5C[C@H](O)CC[C@]5(C)[C@H]4CC[C@]23C)cc1 | 49.9 µM | 31.6 µM | Active | Active | 121 µM | Active | 29.2 µM | 63.98% | Active | 28.3 µM | 36.1 µM | 79.08% | Active | Dde | > 500 µM | 2.12% | Tde | 30% | 85.75% | Active | Activity [36]: Active; IC50 [24]: 74.8 µM; Activity [25]: 62.13%; Activity [26]: Active; IC50 [28]: 44.4 µM; Activity [29]: Active; Activity [31]: Active; Activity [32]: 0.89%; viability at 30 µM [33]: 34.9%; IC50 [34]: 28.9 µM |
